# System: rabbit skeletal myofibrils (fast skeletal myofibrils)
# Assay: Activation of fast skeletal myofibrils (PUMA assay, PK/LDH-coupled ATPase at pCa25)
# Type: biochemical
# Conditions: AC1.4 determined according to the procedure of Example 39; reported as class symbols
# Summary of the method: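 Detergent-washed rabbit psoas myofibrils (~90% fast fibres, calcium-regulated) assayed at calcium giving 25% of maximal ATPase rate (pCa25). ADP turnover coupled via pyruvate kinase/lactate dehydrogenase to NADH oxidation, read at 340 nm. Buffer 12 mM PIPES, 2 mM MgCl2, 1 mM DTT, pH 6.8; AC1.4 values derived.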
row,Mean AC1.4,SMILES
1,B (B=1-10 uM),COC(=O)c1cncc(-c2ccc(NCC(C)(C)c3ccc(F)cc3)nn2)c1 [methyl 5-(6-{[2-(4-fluorophenyl)-2-methylpropyl]amino}pyridazin-3-yl)pyridine-3-carboxylate]
2,D (D=>20 uM),CC(C)(C)OC(=O)N1CCN(C(=O)c2ccc(NCC(C)(C)c3ccc(F)cc3)nn2)CC1 [tert-butyl 4-[(6-{[2-(4-fluorophenyl)-2-methylpropyl]amino}pyridazin-3-yl)carbonyl]piperazinecarboxylate]
3,B (B=1-10 uM),CC(C)(C)OC(=O)N1CCN(C(=O)c2cccc(-c3ccc(NCC(C)(C)c4ccc(F)cc4)nn3)c2)CC1 [tert-butyl 4-{[3-(6-{[2-(4-fluorophenyl)-2-methylpropyl]amino}pyridazin-3-yl)phenyl]carbonyl}piperazine-carboxylate]

# Same assay, conditions: median AC1.4 class, procedure of Example 39
row,Mean AC1.4,SMILES
1,B (B=1-10 uM),CC(C)OC(=O)c1ccc(F)c(-c2ccc(NC[C@]3(c4ncccc4F)C[C@H](F)C3)nn2)c1 [methylethyl 4-fluoro-3-[6-({[3-fluoro-1-(3-fluoro(2-pyridyl))cyclobutyl]methyl}ami-no)pyridazin-3-yl]benzoate]
2,D (D=>20 uM),O=C(CNC(=O)c1ccc(NCC2(c3ncccc3F)CCC2)nn1)OCc1ccccc1 [phenylmethyl 2-{[6-({[(3-fluoro-2-pyridyl)cyclobutyl]methyl}ami-no)pyridazin-3-yl]carbonylamino}acetate]
3,B (B=1-10 uM),"CC(C)(C)OC(=O)N1CC(F)(F)CC1C(=O)NCc1cnc(-c2ccc(NCC3(c4ncccc4F)CCC3)nn2)s1 [tert-butyl (2S)-4,4-difluoro-2-[N-({2-[6-({[(3-fluoro(2-pyridyl))cyclobutyl]methyl}ami-no)pyridazin-3-yl](1,3-thiazol-5-yl)}methyl)carbamoyl]pyrrolidine-carboxylate]"
4,A (A=<1 uM),"O=C(NCCO)c1cnc(-c2ccc(NCC3(c4ncccc4F)CCC3)nn2)s1 [{2-[6-({[(3-fluoro(2-pyridyl))cyclobutyl]methyl}ami-no)pyridazin-3-yl](1,3-thiazol-5-yl)}-N-(2-hydroxyethyl)carboxamide]"
5,B (B=1-10 uM),"O=C(NC1CCNC1=O)c1cnc(-c2ccc(NCC3(c4ncccc4F)CCC3)nn2)s1 (centres unmarked) [{2-[6-({[(3-fluoro(2-pyridyl))cyclobutyl]methyl}ami-no)pyridazin-3-yl](1,3-thiazol-5-yl)}-N-(2-oxopyrrolidin-3-yl)carboxamide]"
6,B (B=1-10 uM),"CC(C)NC(=O)c1cnc(-c2ccc(NCC3(c4ncccc4F)CCC3)nn2)s1 [{2-[6-({[(3-fluoro(2-pyridyl))cyclobutyl]methyl}ami-no)pyridazin-3-yl](1,3-thiazol-5-yl)}-N-(methylethyl)carboxamide]"
7,B (B=1-10 uM),"O=C(NCC1CCCO1)c1cnc(-c2ccc(NCC3(c4ncccc4F)CCC3)nn2)s1 (centres unmarked) [{2-[6-({[(3-fluoro(2-pyridyl))cyclobutyl]methyl}ami-no)pyridazin-3-yl](1,3-thiazol-5-yl)}-N-(oxolan-2-ylmethyl)carboxamide]"
8,A (A=<1 uM),"CS(=O)(=O)CCNC(=O)c1cnc(-c2ccc(NCC3(c4ncccc4F)CCC3)nn2)s1 [{2-[6-({[(3-fluoro(2-pyridyl))cyclobutyl]methyl}ami-no)pyridazin-3-yl](1,3-thiazol-5-yl)}-N-[2-(methylsulfonyl)ethyl]carboxamide]"
9,A (A=<1 uM),"CNC(=O)c1cnc(-c2ccc(NCC3(c4ncccc4F)CCC3)nn2)s1 [{2-[6-({[(3-fluoro(2-pyridyl))cyclobutyl]methyl}ami-no)pyridazin-3-yl](1,3-thiazol-5-yl)}-N-methylcarboxamide]"
10,A (A=<1 uM),"O=C(NC1CCNC1)c1cnc(-c2ccc(NCC3(c4ncccc4F)CCC3)nn2)s1 (centres unmarked) [{2-[6-({[(3-fluoro(2-pyridyl))cyclobutyl]methyl}ami-no)pyridazin-3-yl](1,3-thiazol-5-yl)}-N-pyrrolidin-3-ylcarboxamide]"
11,B (B=1-10 uM),"OCc1cnc(-c2ccc(NCC3(c4ncccc4F)CCC3)nn2)s1 [{2-[6-({[(3-fluoro-2-pyridyl)cyclobutyl]methyl}ami-no)pyridazin-3-yl]-1,3-thiazol-5-yl}methan-1-ol]"
12,A (A=<1 uM),CC(C)(Nc1ccc(-c2cccc(NS(C)(=O)=O)c2)nn1)c1cccc(OC(F)F)n1 [{3-[6-({1-[6-(difluoromethoxy)(2-pyridyl)]-isopropyl}amino)pyridazin-3-yl]phenyl}(methylsulfonyl)amine]

# Same assay, conditions: median AC1.4 reported as class; procedure of Example 39
row,Mean AC1.4,SMILES
1,B (B=1-10 uM),CNc1ccc(-c2ccc(NC[C@]3(c4ncccc4F)C[C@H](F)C3)nn2)cc1C(=O)OC [methyl 5-[6-({[3-fluoro-1-(3-fluoro(2-pyridyl))cyclobutyl]methyl}ami-no)pyridazin-3-yl]-2-(methylamino)benzoate]
2,A (A=<1 uM),COC(=O)c1cc2cc(-c3ccc(NC[C@]4(c5ncccc5F)C[C@H](F)C4)nn3)ccc2[nH]1 [methyl 5-[6-({[3-fluoro-1-(3-fluoro(2-pyridyl))cyclobutyl]methyl}ami-no)pyridazin-3-yl]indole-2-carboxylate]
3,B (B=1-10 uM),"Cc1cc(NCC2(c3ncccc3F)CCC2)nnc1-c1ncc(CO)s1 [{2-[6-({[(3-fluoro(2-pyridyl))cyclobutyl]methyl}amino)-4-methylpyridazin-3-yl]-1,3-thiazol-5-yl}methan-1-ol]"
4,C (C=10-20 uM),CNC(=O)c1cc(-c2ccc(NC[C@]3(c4ncccc4F)C[C@H](F)C3)nn2)ccc1F [{2-fluoro-5-[6-({[3-fluoro-1-(3-fluoro(2-pyridyl))cyclobutyl]methyl}ami-no)pyridazin-3-yl]phenyl}-N-methylcarboxamide]
5,B (B=1-10 uM),CNC(=O)c1cc(C)cc(-c2ccc(NC[C@]3(c4ncccc4F)C[C@H](F)C3)nn2)c1O [{3-[6-({[3-fluoro-1-(3-fluoro(2-pyridyl))cyclobutyl]methyl}ami-no)pyridazin-3-yl]-2-hydroxy-5-methylphenyl}-N-methylcarboxamide]
6,A (A=<1 uM),CNC(=O)c1cccc(-c2ccc(NC[C@]3(c4ncccc4F)C[C@H](F)C3)nn2)c1O [{3-[6-({[3-fluoro-1-(3-fluoro(2-pyridyl))cyclobutyl]methyl}ami-no)pyridazin-3-yl]-2-hydroxyphenyl}-N-methylcarboxamide]
7,B (B=1-10 uM),CNC(=O)c1ccc(O)c(-c2ccc(NC[C@]3(c4ncccc4F)C[C@H](F)C3)nn2)c1 [{3-[6-({[3-fluoro-1-(3-fluoro(2-pyridyl))cyclobutyl]methyl}ami-no)pyridazin-3-yl]-4-hydroxyphenyl}-N-methylcarboxamide]
8,B (B=1-10 uM),CNC(=O)c1cc(C)cc(-c2ccc(NC[C@]3(c4ncccc4F)C[C@H](F)C3)nn2)c1 [{3-[6-({[3-fluoro-1-(3-fluoro(2-pyridyl))cyclobutyl]methyl}ami-no)pyridazin-3-yl]-5-methylphenyl}-N-methylcarboxamide]
9,B (B=1-10 uM),CN1CC(NC(=O)c2cccc(-c3ccc(NC[C@]4(c5ncccc5F)C[C@H](F)C4)nn3)c2)C1 [{3-[6-({[3-fluoro-1-(3-fluoro(2-pyridyl))cyclobutyl]methyl}ami-no)pyridazin-3-yl]phenyl}-N-(1-methylazetidin-3-yl)carboxamide]
10,B (B=1-10 uM),CC(C)(O)CNC(=O)c1cccc(-c2ccc(NC[C@]3(c4ncccc4F)C[C@H](F)C3)nn2)c1 [{3-[6-({[3-fluoro-1-(3-fluoro(2-pyridyl))cyclobutyl]methyl}ami-no)pyridazin-3-yl]phenyl}-N-(2-hydroxy-2-methylpropyl)carboxamide]
11,B (B=1-10 uM),CC1(O)CC(NC(=O)c2cccc(-c3ccc(NC[C@]4(c5ncccc5F)C[C@H](F)C4)nn3)c2)C1 (some centres unmarked) [{3-[6-({[3-fluoro-1-(3-fluoro(2-pyridyl))cyclobutyl]methyl}ami-no)pyridazin-3-yl]phenyl}-N-(3-hydroxy-3-methylcyclobutyl)carboxamide]
12,B (B=1-10 uM),O=C(NC1CC(O)C1)c1cccc(-c2ccc(NC[C@]3(c4ncccc4F)C[C@H](F)C3)nn2)c1 (some centres unmarked) [{3-[6-({[3-fluoro-1-(3-fluoro(2-pyridyl))cyclobutyl]methyl}ami-no)pyridazin-3-yl]phenyl}-N-(3-hydroxycyclobutyl)carboxamide]
13,B (B=1-10 uM),CS(=O)(=O)N1CC(NC(=O)c2cccc(-c3ccc(NC[C@]4(c5ncccc5F)C[C@H](F)C4)nn3)c2)C1 [{3-[6-({[3-fluoro-1-(3-fluoro(2-pyridyl))cyclobutyl]methyl}ami-no)pyridazin-3-yl]phenyl}-N-[1-(methylsulfonyl)azetidin-3-yl]carboxamide]
14,B (B=1-10 uM),O=C(NC(CO)CO)c1cccc(-c2ccc(NC[C@]3(c4ncccc4F)C[C@H](F)C3)nn2)c1 [{3-[6-({[3-fluoro-1-(3-fluoro(2-pyridyl))cyclobutyl]methyl}ami-no)pyridazin-3-yl]phenyl}-N-[2-hydroxy-1-(hydroxymethyl)ethyl]carboxamide]
15,A (A=<1 uM),O=C(NCC1(O)CC1)c1cccc(-c2ccc(NC[C@]3(c4ncccc4F)C[C@H](F)C3)nn2)c1 [{3-[6-({[3-fluoro-1-(3-fluoro(2-pyridyl))cyclobutyl]methyl}ami-no)pyridazin-3-yl]phenyl}-N-[(hydroxycyclopropyl)methyl]car-boxamide]
16,A (A=<1 uM),CNC(=O)c1cccc(-c2ccc(NC[C@]3(c4ncccc4F)C[C@H](F)C3)nn2)c1 [{3-[6-({[3-fluoro-1-(3-fluoro(2-pyridyl))cyclobutyl]methyl}ami-no)pyridazin-3-yl]phenyl}-N-methylcarboxamide]
17,B (B=1-10 uM),O=C(NC1COC1)c1cccc(-c2ccc(NC[C@]3(c4ncccc4F)C[C@H](F)C3)nn2)c1 [{3-[6-({[3-fluoro-1-(3-fluoro(2-pyridyl))cyclobutyl]methyl}ami-no)pyridazin-3-yl]phenyl}-N-oxetan-3-ylcarboxamide]

# Source: patent publication US10076519B2 (CYTOKINETICS, INC., priority 2010, dated 2018)
